According to patent US20260053812A1, “METHODS OF TREATING HYPERTENSION WITH A COMBINATION OF AN ALDOSTERONE SYNTHASE INHIBITOR AND A DIURETIC” (Mineralys Therapeutics, Inc., priority 2022, published 2026):

Assays:
Format in all cases: in vivo, human
[1] = Estimated glomerular filtration rate (eGFR, CKD-EPI equation)
ACTH stimulation testing = conditions: majority of Part 2 subjects, 100 mg QD, Baseline and after 8 weeks
Method: 11-deoxycorticosterone levels were unaffected. […] Due to supply chain disruption, the ability to perform ACTH stimulation testing was limited during the first part of the trial. However, the majority of subjects in Part 2 dosed with 100 mg QD, the maximum dose tested, had ACTH-stimulation testing performed at Baseline and after 8 weeks of treatment.

[2] = Clinical laboratory evaluations, vital signs, physical examination, ECG
Source text: Safety endpoints of this study are: • (a) Incidence and severity of all spontaneously reported adverse events (AEs) • (b) Changes in vital signs (standing SBP, standing DBP, body temperature, heart rate, and respiratory rate) • (c) Changes in electrocardiogram parameters (including cardiac intervals: PR, QRS, QT, and corrected QT interval using Fridericia's formula) • (d) Changes in clinical laboratory assessments (hematology, chemistry, coagulation, and urinalysis) • (e) Change in office-measured SBP from Study Week 8 (end-of-treatment period to end of follow up (i.e. end of Study Week 12 for Part 1 and end of Study 10 for Part 2).

CC(=O)N[C@H]1CC[C@H](NC(=O)CN2CCN(c3nncc(-c4ccc(C)cc4)n3)CC2)CC1 [Compound A HBr]
Estimated Glomerular Filtration Rate, mean observed ([1]; Part 1, 12.5 mg QD, Week 8): 76.00 mL/min/1.73 m^2
Estimated Glomerular Filtration Rate, mean observed ([1]; Part 1, 25 mg BID, BL): 80.85 mL/min/1.73 m^2
Estimated Glomerular Filtration Rate, mean change from baseline ([1]; Part 1, 25 mg BID, Week 1): −6.85 mL/min/1.73 m^2
Estimated Glomerular Filtration Rate, mean observed ([1]; Part 1, 25 mg BID, Week 1): 74.00 mL/min/1.73 m^2
Estimated Glomerular Filtration Rate, mean change from baseline ([1]; Part 1, 25 mg BID, Week 2): −5.42 mL/min/1.73 m^2
Estimated Glomerular Filtration Rate, mean observed ([1]; Part 1, 25 mg BID, Week 2): 75.43 mL/min/1.73 m^2
Estimated Glomerular Filtration Rate, mean change from baseline ([1]; Part 1, 25 mg BID, Week 3): −5.90 mL/min/1.73 m^2
Estimated Glomerular Filtration Rate, mean observed ([1]; Part 1, 25 mg BID, Week 3): 75.07 mL/min/1.73 m^2
Estimated Glomerular Filtration Rate, mean change from baseline ([1]; Part 1, 25 mg BID, Week 4): −6.69 mL/min/1.73 m^2
Estimated Glomerular Filtration Rate, mean observed ([1]; Part 1, 25 mg BID, Week 4): 73.48 mL/min/1.73 m^2
Estimated Glomerular Filtration Rate, mean change from baseline ([1]; Part 1, 25 mg BID, Week 5): −7.41 mL/min/1.73 m^2
Estimated Glomerular Filtration Rate, mean observed ([1]; Part 1, 25 mg BID, Week 5): 73.25 mL/min/1.73 m^2
Estimated Glomerular Filtration Rate, mean change from baseline ([1]; Part 1, 25 mg BID, Week 6): −8.02 mL/min/1.73 m^2
Estimated Glomerular Filtration Rate, mean observed ([1]; Part 1, 25 mg BID, Week 6): 72.64 mL/min/1.73 m^2
Estimated Glomerular Filtration Rate, mean change from baseline ([1]; Part 1, 25 mg BID, Week 7): −7.85 mL/min/1.73 m^2
Estimated Glomerular Filtration Rate, mean observed ([1]; Part 1, 25 mg BID, Week 7): 72.22 mL/min/1.73 m^2
Estimated Glomerular Filtration Rate, mean change from baseline ([1]; Part 1, 25 mg BID, Week 8): −5.55 mL/min/1.73 m^2
Estimated Glomerular Filtration Rate, mean observed ([1]; Part 1, 25 mg BID, Week 8): 75.11 mL/min/1.73 m^2
Estimated Glomerular Filtration Rate, mean observed ([1]; Part 1, 50 mg QD, BL): 77.18 mL/min/1.73 m^2
Estimated Glomerular Filtration Rate, mean change from baseline ([1]; Part 1, 50 mg QD, Week 1): −2.96 mL/min/1.73 m^2
Estimated Glomerular Filtration Rate, mean observed ([1]; Part 1, 50 mg QD, Week 1): 74.21 mL/min/1.73 m^2
Estimated Glomerular Filtration Rate, mean change from baseline ([1]; Part 1, 50 mg QD, Week 2): −4.32 mL/min/1.73 m^2
Estimated Glomerular Filtration Rate, mean observed ([1]; Part 1, 50 mg QD, Week 2): 72.86 mL/min/1.73 m^2
Estimated Glomerular Filtration Rate, mean change from baseline ([1]; Part 1, 50 mg QD, Week 3): −2.35 mL/min/1.73 m^2
Estimated Glomerular Filtration Rate, mean observed ([1]; Part 1, 50 mg QD, Week 3): 74.81 mL/min/1.73 m^2
Estimated Glomerular Filtration Rate, mean change from baseline ([1]; Part 1, 50 mg QD, Week 4): −3.61 mL/min/1.73 m^2
Estimated Glomerular Filtration Rate, mean observed ([1]; Part 1, 50 mg QD, Week 4): 73.63 mL/min/1.73 m^2
Estimated Glomerular Filtration Rate, mean change from baseline ([1]; Part 1, 50 mg QD, Week 5): −4.10 mL/min/1.73 m^2
Estimated Glomerular Filtration Rate, mean observed ([1]; Part 1, 50 mg QD, Week 5): 70.58 mL/min/1.73 m^2
Estimated Glomerular Filtration Rate, mean change from baseline ([1]; Part 1, 50 mg QD, Week 6): −2.83 mL/min/1.73 m^2
Estimated Glomerular Filtration Rate, mean observed ([1]; Part 1, 50 mg QD, Week 6): 74.63 mL/min/1.73 m^2
Estimated Glomerular Filtration Rate, mean change from baseline ([1]; Part 1, 50 mg QD, Week 7): −5.46 mL/min/1.73 m^2
Estimated Glomerular Filtration Rate, mean observed ([1]; Part 1, 50 mg QD, Week 7): 69.68 mL/min/1.73 m^2
Estimated Glomerular Filtration Rate, mean change from baseline ([1]; Part 1, 50 mg QD, Week 8): −4.64 mL/min/1.73 m^2
Estimated Glomerular Filtration Rate, mean observed ([1]; Part 1, 50 mg QD, Week 8): 72.54 mL/min/1.73 m^2
Estimated Glomerular Filtration Rate, mean observed ([1]; Part 1, 100 mg QD, BL): 77.35 mL/min/1.73 m^2
Estimated Glomerular Filtration Rate, mean change from baseline ([1]; Part 1, 100 mg QD, Week 1): −6.80 mL/min/1.73 m^2
Estimated Glomerular Filtration Rate, mean observed ([1]; Part 1, 100 mg QD, Week 1): 70.81 mL/min/1.73 m^2
Estimated Glomerular Filtration Rate, mean change from baseline ([1]; Part 1, 100 mg QD, Week 2): −10.91 mL/min/1.73 m^2
Estimated Glomerular Filtration Rate, mean observed ([1]; Part 1, 100 mg QD, Week 2): 65.56 mL/min/1.73 m^2
Estimated Glomerular Filtration Rate, mean change from baseline ([1]; Part 1, 100 mg QD, Week 3): −9.24 mL/min/1.73 m^2
Estimated Glomerular Filtration Rate, mean observed ([1]; Part 1, 100 mg QD, Week 3): 67.22 mL/min/1.73 m^2
Estimated Glomerular Filtration Rate, mean change from baseline ([1]; Part 1, 100 mg QD, Week 4): −9.46 mL/min/1.73 m^2
Estimated Glomerular Filtration Rate, mean observed ([1]; Part 1, 100 mg QD, Week 4): 67.23 mL/min/1.73 m^2
Estimated Glomerular Filtration Rate, mean change from baseline ([1]; Part 1, 100 mg QD, Week 5): −10.50 mL/min/1.73 m^2
Estimated Glomerular Filtration Rate, mean observed ([1]; Part 1, 100 mg QD, Week 5): 66.19 mL/min/1.73 m^2
Estimated Glomerular Filtration Rate, mean change from baseline ([1]; Part 1, 100 mg QD, Week 6): −9.94 mL/min/1.73 m^2
Estimated Glomerular Filtration Rate, mean observed ([1]; Part 1, 100 mg QD, Week 6): 66.19 mL/min/1.73 m^2
Estimated Glomerular Filtration Rate, mean change from baseline ([1]; Part 1, 100 mg QD, Week 7): −9.50 mL/min/1.73 m^2
Estimated Glomerular Filtration Rate, mean observed ([1]; Part 1, 100 mg QD, Week 7): 66.96 mL/min/1.73 m^2
Estimated Glomerular Filtration Rate, mean change from baseline ([1]; Part 1, 100 mg QD, Week 8): −7.83 mL/min/1.73 m^2
Estimated Glomerular Filtration Rate, mean observed ([1]; Part 1, 100 mg QD, Week 8): 68.42 mL/min/1.73 m^2
Estimated Glomerular Filtration Rate, mean observed ([1]; Part 2, 100 mg QD, BL): 79.90 mL/min/1.73 m^2
Estimated Glomerular Filtration Rate, mean change from baseline ([1]; Part 2, 100 mg QD, Week 1): −9.65 mL/min/1.73 m^2
Estimated Glomerular Filtration Rate, mean observed ([1]; Part 2, 100 mg QD, Week 1): 70.73 mL/min/1.73 m^2
Estimated Glomerular Filtration Rate, mean change from baseline ([1]; Part 2, 100 mg QD, Week 2): −8.05 mL/min/1.73 m^2
Estimated Glomerular Filtration Rate, mean observed ([1]; Part 2, 100 mg QD, Week 2): 72.07 mL/min/1.73 m^2
Estimated Glomerular Filtration Rate, mean change from baseline ([1]; Part 2, 100 mg QD, Week 3): −7.33 mL/min/1.73 m^2
Estimated Glomerular Filtration Rate, mean observed ([1]; Part 2, 100 mg QD, Week 3): 72.69 mL/min/1.73 m^2
Estimated Glomerular Filtration Rate, mean change from baseline ([1]; Part 2, 100 mg QD, Week 4): −7.20 mL/min/1.73 m^2
Estimated Glomerular Filtration Rate, mean observed ([1]; Part 2, 100 mg QD, Week 4): 72.92 mL/min/1.73 m^2
Estimated Glomerular Filtration Rate, mean change from baseline ([1]; Part 2, 100 mg QD, Week 5): −8.69 mL/min/1.73 m^2
Estimated Glomerular Filtration Rate, mean observed ([1]; Part 2, 100 mg QD, Week 5): 71.23 mL/min/1.73 m^2
Estimated Glomerular Filtration Rate, mean change from baseline ([1]; Part 2, 100 mg QD, Week 6): −10.87 mL/min/1.73 m^2
Estimated Glomerular Filtration Rate, mean observed ([1]; Part 2, 100 mg QD, Week 6): 68.04 mL/min/1.73 m^2
Estimated Glomerular Filtration Rate, mean change from baseline ([1]; Part 2, 100 mg QD, Week 7): −7.34 mL/min/1.73 m^2
Estimated Glomerular Filtration Rate, mean observed ([1]; Part 2, 100 mg QD, Week 7): 72.82 mL/min/1.73 m^2
Estimated Glomerular Filtration Rate, mean change from baseline ([1]; Part 2, 100 mg QD, Week 8): −7.95 mL/min/1.73 m^2
Estimated Glomerular Filtration Rate, mean observed ([1]; Part 2, 100 mg QD, Week 8): 72.43 mL/min/1.73 m^2
Change in estimated glomerular filtration rate (eGFR) ([1]; across dosing cohorts): dose-dependent and reversible reduction
ACTH-stimulation results (ACTH stimulation testing): no individuals with abnormal ACTH-stimulation results
Clinical chemistry, hematology, coagulation, urinalysis changes from baseline to Week 8 ([2]; Part 1 or Part 2): no meaningful changes
Vital signs, physical examination, ECG parameters ([2]; Parts 1 and 2): no notable findings
Serum creatinine levels ([2]; active treatment cohorts compared with placebo, Parts 1 and 2): increased
